What was measured:
rLHR [1] = biological target: T1, rLHR (Rattus norvegicus, UniProt P16235); test: Reporter gene expression (SEAP, eYFP) of CS/pDADMAC-encapsulated CK04 cells; format: cell-based; design: Full-length cDNAs encoding the LHRs of rat (r) and bovine (b) origin; expressed in transfected cells; host or cells: CK04: HEK293T stably cotransfected with pLEN-rLHR and pZeoSV2(+), clone 6
Text: The SEAP production increased over time in the presence but not the absence of bLH.
To determine whether bLH can penetrate microcapsules and activate the gene expression of encapsulated cells, CK04 cells were transiently transfected with a vector encoding PCRE controlled eYFP expression (pCK91, PCRE-eYFP-pA). After transfection the cells were encapsulated in CS/pDADMAC-microcapsules and cultured in the absence or presence of bLH. […] In contrast in the absence of bLH the cells remained non-fluorescent. […] It was also investigated if the activation of encapsulated cells is bLH dose- and time-dependent. Therefore, CK04 cells transiently transfected for PCRE dependent SEAP expression (pCK62, PCRE-SEAP-PA) were encapsulated, the capsules cultured in the absence or presence of 100 ng/ml or 500 ng/ml bLH and the SEAP expression measured in 12 hours intervals (FIG. 11). […] 60 hours post-induction a 2.3±0.2 fold higher SEAP expression for LH-surge doses of bLH compared to 100 ng/ml hormone was measured. […]
The intracellular cAMP production of cells was quantified using the cAMP Fluorescence Polarization (FP) Biotrak Immunoassay System (GE Healthcare Bio-Sciences GmbH, Otelfingen, Switzerland, Cat No. RPN3595) according to the manufacturer's protocol. The expression of firefly luciferase was determined with the Tropix Luciferase Assay Kit (Applied Biosystems, Bedford, USA, Cat No. BC100L). […]

rLHR [2] = biological target: T1, rLHR; test: Cellulase activity assay of supernatants of CK04 cells transfected with pCK71; format: cell-based; design: Full-length cDNAs encoding the LHRs of rat (r) and bovine (b) origin; expressed in transfected cells; host or cells: CK04: HEK293T stably cotransfected with pLEN-rLHR and pZeoSV2(+), clone 6; settings: CK04 + pCK71, supernatants 48 h post-induction
Experimental: Cellulase activity assay performed from cell culture supernatants 48 h post-induction.
A novel bLH-responsive microcapsule degradation system was established by placing an engineered secreted version of the lytic enzyme endo-1.4-beta-glucanase gene (cellulase) under control of PCRE. […] The protein had the estimated size of 57 kDa. Additionally, the functionality of the pCK71-encoded cellulase was evaluated by performing a cellulase activity assay (FIG. 12).
Cellulase was quantified using EnzCheck® fluorescent substrate (Molecular Probes, Eugene, Oreg., USA) according to the manufacturer's protocol: 20 μl of cell culture supernatant was centrifuged at 16,000×g for one minute to remove cell debris and 15 μl of appropriate dilutions in PBS (Invitrogen, cat. no. 21600-069) were transferred to a 384-well plate containing 15 μl sodium acetate buffer (200 mM sodium acetate, pH 5.5) per well supplemented with 3 μl substrate solution. Plates were incubated at 37° C. for 30 minutes and fluorescence intensity was measured subsequently at 340 nm (excitation wavelength) and 450 nm (emission wavelength) in a Genios Pro multiwell plate reader (Tecan A G, Maennedorf, Switzerland). Absolute cellulase levels were determined by comparing the fluorescence intensities to readings of standardized solutions containing known concentrations of Aspergillus niger cellulase (Sigma, cat. no. 22178). […]

T1 sequence (P16235 27-700): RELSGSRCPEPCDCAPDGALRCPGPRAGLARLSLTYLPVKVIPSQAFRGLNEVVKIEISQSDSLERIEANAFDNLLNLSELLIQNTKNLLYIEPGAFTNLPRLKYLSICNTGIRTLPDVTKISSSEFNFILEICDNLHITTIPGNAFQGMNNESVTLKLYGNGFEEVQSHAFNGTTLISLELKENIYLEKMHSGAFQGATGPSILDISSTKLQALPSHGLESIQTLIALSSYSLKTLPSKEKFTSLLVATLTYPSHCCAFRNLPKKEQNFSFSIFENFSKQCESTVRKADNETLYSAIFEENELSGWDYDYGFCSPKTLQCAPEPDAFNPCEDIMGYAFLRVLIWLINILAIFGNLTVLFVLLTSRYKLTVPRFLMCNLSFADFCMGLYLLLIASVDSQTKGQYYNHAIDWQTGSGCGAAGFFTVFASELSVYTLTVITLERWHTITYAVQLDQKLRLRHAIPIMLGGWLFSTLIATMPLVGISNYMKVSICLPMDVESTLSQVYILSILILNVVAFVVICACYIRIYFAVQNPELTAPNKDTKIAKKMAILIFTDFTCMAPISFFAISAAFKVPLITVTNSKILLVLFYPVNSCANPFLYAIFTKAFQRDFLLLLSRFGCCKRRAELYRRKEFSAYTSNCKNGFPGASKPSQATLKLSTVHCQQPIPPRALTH

bovine luteinizing hormone [bLH]
SEAP expression for LH-surge doses of bLH compared to 100 ng/ml (rLHR [1]; encapsulated CK04, pCK62, 60 hours post-induction, 500 ng/ml vs 100 ng/ml): 2.3±0.2 fold | eYFP expression of encapsulated cells (rLHR [1]; encapsulated CK04, pCK91, bLH present): strongly induced | bLH-dependent increase in cellulase activity (rLHR [2]): 8.4±0.2 fold
